The test system of series [1] is HepG2 cells. Put plainly: Cytotoxicity in HepG2 cells using CellTiter-Blue, same incubation period as HepG2.2.15 assay. Type of series: cell-based. The settings on record: 6 days. On the procedure: (§1) Cytotoxicity of the compounds was tested in HepG2 cells using CellTiter-Blue, with the same incubation period and dose range as in the HepG2.2.15 assay.
For series [2], the system named is HBV. In words: anti-HBV activity in stable transfected HepG2.2.15 cell line, HBV DNA from secreted virions by realtime PCR. Type of series: cell-based, Hepatitis B virus. The settings on record: HepG2.2.15 cells, 6 days of treatment, secreted virion HBV DNA, read-out: HBV-HepG2 2.15 EC50.
In series [3] the test system is HepG2 cells. Put plainly: Cytotoxicity in HepG2 cells incubated 4 days, Resazurin assay. The settings on record: read-out: HepG2 4 days CC50.
The test system of series [4] is HBV. Put plainly: anti HBV activity in HepG2.117 cell line (Tet-off, inducibly HBV producing), intracellular HBV DNA by realtime PCR. The following applies: HepG2.117 cells, 3 days of treatment, intracellular HBV DNA, read-out: HepG2 117 EC50. The class given is cell-based, Hepatitis B virus.
Series [5] deals with HepG2 cells. The following applies: human, 4 days.
Series [6] can be described thus: Cytotoxicity in HepG2 cells using CellTiter-Blue, same incubation period as HepG2.2.15 assay. Type of series: cell-based. The settings on record: human, HepG2 6 days CC50. On the procedure:
as §1
Background: The colour change of resazurin is a common sign of viable cells or microbes.

The nature of another series: in vitro. The settings on record: human, HepG2 4 days CC50.
Where [7] appears, read: HepG2 cells, CellTiter-Blue, read-out: HepG2 6 days CC50.
The mark [8] stands for this setting: Hepatitis B virus, HepG2.2.15, 144 h.
[9] abbreviates: Hepatitis B virus, HepG2.117, 72 h.

This note sets out measurements from patent US9233933B2, “4,4-disubstituted-1,4-dihydropyrimidines and the use thereof as medicaments for the treatment of hepatitis B” (priority 2012, dated 2016).

Where two headings read alike, the source gives them in different places.

As for `CCOC(=O)C1=C(CN2CCOCC2)NC(c2ccccn2)=NC1(C)c1ccc(F)cc1` (racemic) [Compound 4a], the CC50 with HepG2 cells [1] (setting [7]) came to 92 µM. Besides, in the series with HBV [2], the concentration giving a half-maximal response (EC50) (as a rule, the concentration that produces a half-maximal response) is > 100 µM.
As for `CCOC(=O)C1=C(CN2CCOCC2)NC(c2ccccn2)=NC1(C)c1ccc(F)cc1` (racemic) [Compound 4b], the CC50 in the series with HepG2 cells [1] (setting [7]) was 92.4 µM; in the series with HepG2 cells [3], > 50 µM. In addition, the results for the EC50 in the series with HBV [2] and in the series with HBV [4] were 0.643 µM and 0.76 µM, respectively.
On to `CCOC(=O)C1=C(CN2CCOCC2)NC(c2ccccn2)=NC1(c1ccc(F)cc1)C(F)(F)F` (racemic) [Compound 34], for which the CC50 in the series on HepG2 cells [1] (setting [7]) is 20 µM. The EC50 in the series with HBV [2] was 16.2 µM.
For `CCOC(=O)C1=C(CN2CCOCC2)NC(c2ccccn2)=NC1(c1ccc(F)cc1)C(F)(F)F` (racemic) [Compound 34a], the CC50 in the series with HepG2 cells [1] (setting [7]) came out at 30.9 µM. The EC50 in the series on HBV [2] is > 100 µM.
As to `CCOC(=O)C1=C(CN2CCOCC2)NC(c2ccccn2)=NC1(c1ccc(F)cc1)C(F)(F)F` (racemic) [Compound 34b], the CC50 in the series with HepG2 cells [1] (setting [7]) turned out to be 41.6 µM. The EC50 with HBV [2] is 8.23 µM.
`N#CC1=C(CN2CCOCC2)NC(c2ccccn2)=NC12CCCc1cc(F)ccc12` (single isomer, unassigned) [Compound 60b]: the CC50 in the series with HepG2 cells [1] (setting [7]) and with HepG2 cells [3] was > 100 µM throughout. For the same compound, the concentration giving a half-maximal response (EC50) was determined as 2.26 µM in the series with HBV [2] and 1.28 µM in the series with HBV [4].
Take `COC(=O)C1=C(CN2CCOCC2)NC(c2ccccn2)=NC12CCc1c(F)cccc12` (single isomer, unassigned) [Compound 66b]: the CC50 with HepG2 cells [1] (human) and in the series with HepG2 cells [5] was > 100 µM each time. For the same compound, the figures for the 50% effective concentration (EC50) in the series on HBV [2] and with HBV [4] were 35.1 µM and 48.9 µM, respectively.
For the compound `COC(=O)C1=C(CN2CCOCC2)NC(c2ccccn2)=NC12CCc1ccc(F)cc12` (single isomer, unassigned) [Compound 96b], the CC50 in the series with HepG2 cells [1] (human) and with HepG2 cells [5] was > 100 µM throughout. Further, the EC50 is 30.3 µM in the series on HBV [2] and 18.7 µM in the series with HBV [4].
On to `COC(=O)C1=C(C)NC(c2ncc(F)cc2F)=NC12c1ccccc1OC2(F)F` (single isomer, unassigned) [Compound 106b], for which the CC50 is > 100 µM in the series with HepG2 cells [1] (human) and > 25 µM in the series on HepG2 cells [5]. Moreover, the EC50 is 29.4 µM in the series on HBV [2] and > 25 µM with HBV [4].
In the case of `COC(=O)C1=C(C)NC(c2ncc(F)cc2F)=NC12CC(C)(C)c1ccccc12` (single isomer, unassigned) [Compound 134b], the CC50 was 35.8 µM in the series with HepG2 cells [1] (human) and > 50 µM in the series on HepG2 cells [5]. Moreover, the EC50 in the series on HBV [2] is 41.9 µM; in the series with HBV [4] it was > 50 µM.
On to `COC(=O)C1=C(C)NC(c2ncc(F)cc2F)=NC1(c1ccc(F)c(F)c1)C(F)F` (single isomer, unassigned) [Compound 151b], for which the EC50 with HBV [2] came to 4.25 µM; in the series on HBV [4], 3.68 µM. Also, the CC50 in the series on HepG2 cells [3] was > 25 µM.
For the compound `COC(=O)C1=C(C)NC(c2ncccc2F)=NC1(C)c1ccc(F)c(F)c1` (single isomer, unassigned) [Compound 158b], the figures for the half-maximal effective concentration (EC50) in the series with HBV [2] (setting [8]) and in the series with HBV [4] were > 100 µM and > 25 µM, respectively. In the series on HepG2 cells [3], the CC50 was > 25 µM.
Turning to `COC(=O)C1=C(C)NC(c2ncccn2)=NC1(C)c1ccc(F)c(F)c1` (single isomer, unassigned) [Compound 159b], the EC50 in the series on HBV [2] is > 100 µM; with HBV [4] it was > 25 µM. Moreover, the CC50 in the series on HepG2 cells [3] was > 25 µM.
For the compound `COC(=O)C1=C(C)NC(SC)=NC1(C)c1ccc(F)c(F)c1` (single isomer, unassigned) [Compound 160b], the 50% effective concentration (EC50) stood at 0.451 µM with HBV [2] and 10.5 µM in the series with HBV [4]. Further, the CC50 with HepG2 cells [3] is > 25 µM.
On the same counts, the results for `COC(=O)C1=C(C#N)NC(c2ncc(F)cc2F)=NC1(C)c1ccc(F)c(F)c1` (single isomer, unassigned) [Compound 163b] are > 100 µM, > 25 µM and > 25 µM.
Consider `COC(=O)C1=C(C)NC(c2nccs2)=NC12C(F)=C(F)c1cc(F)ccc12` (single isomer, unassigned) [Compound 166b], for which the results for the half-maximal effective concentration (EC50) in the series with HBV [2] and with HBV [4] were 0.197 µM and 15.5 µM, respectively. In the series with HepG2 cells [5], the CC50 is > 25 µM.
As for `COC(=O)C1=C(CN2CCOCC2)NC(c2ccccn2)=NC12c1ccc(F)cc1C(F)C2(F)F` (single isomer, unassigned) [Compound 168B], the figures for the half-maximal effective concentration (EC50) in the series on HBV [2] and in the series on HBV [4] were 5.73 µM and 1.49 µM, respectively. The CC50 in the series on HepG2 cells [5] is > 25 µM.
Turning to `COC(=O)C1=C(C)NC(c2nccs2)=NC12C(F)=Cc1c2ccc(F)c1F` (single isomer, unassigned) [Compound 174b], the CC50 in the series on HepG2 cells [5] was > 25 µM. In addition, in the series on HBV [4], the EC50 is > 25 µM.
Consider `COC(=O)C1=C(C)NC(c2ncc(F)cc2F)=NC1(C)c1ccc(F)c(F)c1` (centres unmarked) [132b •MsOH], for which the EC50 in the series on HBV [2] (setting [8]) amounted to 0.694 µM; with HBV [4] (setting [9]), 0.803 µM. In addition, the CC50 in the series on HepG2 cells [3] was > 25 µM.
As for `COC(=O)C1=C(C)NC(c2ncc(F)cc2F)=NC1(C)c1ccc(Cl)c(F)c1` (centres unmarked) [156 •MsOH], the EC50 is 1.93 µM in the series with HBV [2] and 1.09 µM in the series on HBV [4]. The CC50 in the series with HepG2 cells [3] is > 25 µM.
For `COC(=O)C1=C(C)NC(c2ncc(F)cc2F)=NC12c1ccccc1OC2(F)F` (centres unmarked) [Compound 106], the CC50 at 6 days in series [6] was > 100 µM. Moreover, the EC50 in the series with HBV [2] (setting [8]) is 98.4 µM; with HBV [4] (setting [9]) it was > 25 µM. The CC50 at 4 days in “in vitro” was > 25 µM.
In the case of `COC(=O)C1=C(CN2CCOCC2)NC(c2ccccn2)=NC12c1ccccc1CC2(F)F` (centres unmarked) [Compound 110], the CC50 at 6 days in series [6] is > 100 µM. Besides, the concentration for a half-maximal effect (EC50) was determined as 10.7 µM in the series on HBV [2] (setting [8]) and 6.14 µM with HBV [4] (setting [9]). In addition, the CC50 at 4 days in the series “in vitro” was > 50 µM.
For `COC(=O)C1=C(C)NC(c2ccccn2)=NC12c1ccccc1CC2(F)F` (centres unmarked) [Compound 111], the CC50 at 6 days in series [6] was > 100 µM. Further, the 50% effective concentration (EC50) in the series on HBV [2] (setting [8]) was 81.8 µM; in the series with HBV [4] (setting [9]), > 50 µM. Also, the CC50 at 4 days in “in vitro” is > 50 µM.
For the compound `COC(=O)C1=C(CN2CCOCC2)NC(c2ccccn2)=NC12C(F)=Cc1ccccc12` (centres unmarked) [Compound 112], the CC50 at 6 days in series [6] was > 100 µM. The EC50 in the series on HBV [2] (setting [8]) came to 0.624 µM; with HBV [4] (setting [9]) it was 0.41 µM. Besides, the CC50 at 4 days in “in vitro” is > 50 µM.
On to `COC(=O)C1=C(C)NC(c2ncc(F)cc2F)=NC12c1ccccc1CC2(F)F` (centres unmarked) [Compound 115], for which the CC50 at 6 days in series [6] is > 100 µM. In addition, the EC50 with HBV [2] (setting [8]) was > 100 µM; in the series on HBV [4] (setting [9]), > 25 µM. Also, the CC50 at 4 days in “in vitro” is > 25 µM.
In the case of `COC(=O)C1=C(C)NC(c2ncc(F)cc2F)=NC12C(=O)N(C)c1cc(F)ccc12` (centres unmarked) [Compound 118], in series [6], the CC50 at 6 days was > 100 µM. For the same compound, the half-maximal effective concentration (EC50) in the series with HBV [2] (setting [8]) was 40.7 µM; with HBV [4] (setting [9]), > 50 µM. For the same compound, the CC50 at 4 days in the series “in vitro” was > 50 µM.
Compound `COC(=O)C1=C(CN2CCOCC2)NC(c2ccccn2)=NC12c1ccccc1OC2(F)F` (centres unmarked) [Compound 124] showed a CC50 at 6 days in series [6] of 48.4 µM. In addition, the concentration giving a half-maximal response (EC50) came to 13 µM in the series with HBV [2] (setting [8]) and 2.41 µM in the series with HBV [4] (setting [9]). In the series “in vitro”, the CC50 at 4 days was > 25 µM.
